These results are taken from US6063789A, “Aminoisoquinolines and aminotheinopyridine derivatives and their use as anti-inflammatory agents” (priority 1996, dated 2000).

For test [1] the following is noted: cited from J Med. Chem., vol 20, No 3, March 1977, pp 449 to 452; cited from earlier work.
The target of test [2] is T1, inducible isoform of the enzyme nitric oxide synthase (NOS) (Mus musculus, UniProt P29477).
T1 construct: Nitric oxide synthase is produced by cells in response to interferon-g (IFNg) and lipopolysaccharide (LPS); endogenous in cells; host or cells: J774A-1 murine macrophage cell line, induced with LPS and IFN-gamma; crude cell lysate
In words: nitric oxide synthetase activity screen (conversion of 3H-L-arginine to 3H-L-citrulline by lysate of induced J774A-1 macrophages). The class given is biochemical. Particulars: lysate of LPS/IFNg-induced murine macrophage J774A-1 cells; 1 hour at room temperature; read-out: IC50 (the concentration of drug substance which gives 50% enzyme inhibition in the assay).
Experimental: The activity of compounds according to the invention was tested in the following screen.
The activity of compounds of formula I, or a pharmaceutically acceptable salt, enantiomer or tautomer thereof, may be screened for nitric oxide synthetase activity by a procedure based on that of Forstennann et al. (1992) Eur. J. Pharm. […] Nitric oxide synthetase converts ^3 H-L-arginine to ^3 H-L-citrulline which can be separated by cation exchange chromatography and quantified by liquid scintillation counting.
Enzyme is prepared, after induction, from the cultured murine macrophage cell line J774A-1 (obtained from the laboratories of the Imperial Cancer Research Fund). J774A-1 cells are cultured in Dulbeccos Modified Eagles Medium (DMEM) supplemented with 10% foetal bovine serum, 4 mM L-glutamine and antibiotics (100 units/ml penicillin G, 100 mg/ml streptomycin & 0.25 mg/ml amphotericin B). Cells are routinely grown in 225 cm^2 flasks containing 35 ml medium kept at 37° C. and in a humidified atmosphere containing 5% CO2. Nitric oxide synthase is produced by cells in response to interferon-g (IFNg) and lipopolysaccharide (LPS). The medium from confluent culture flasks is removed and replaced with 25 ml (per flask) of fresh medium containing 1 mg/ml LPS and 10 units/ml IFNg. After a period of 17-20 hours in culture, harvesting of cells is accomplished by scraping the cell sheet from the flask surface into the culture medium. Cells are collected by centrifugation (1000 g for 10 minutes) and lysate prepared by adding to the cell pellet a solution containing 50 mM Tris-HCl (pH 7.5 at 20° C.), 10% (v/v) glycerol, 0.1% (v/v) Triton-X-100, 0.1 mM dithiothreitol and a cocktail of protease inhibitors comprising leupeptin (2 mg/ml), soya bean trypsin inhibitor (10 mg/ml), aprotinin (5 mg/ml) & phenylmethylsulphonyl fluoride (50 mg/ml).
For the assay, 25 μl substrate cocktail (50 mM Tris-HCl (pH 7.5 at 20° C.), 400 μM NADPH, 20 μM flavin adenine dinucleotide, 20 μM flavin mononucleotide, 4 μM tetrahydrobiopterin, 12 μM L-arginine and 0.025 mCi L-[^3 H] arginine) is added to wells of a 96 well filter plate (0.45 μM pore size) containing 25 μl of a solution of test compound in 50 mM Tris-HCl. The reaction is started by adding 50 μl of cell lysate (prepared as above) and after incubation for 1 hour at room temperature is terminated by addition of 50 μl of an aqueous solution of 3 mM nitroarginine and 21 mM EDTA.
Labelled L-citrulline is separated from labelled L-arginine using Dowex AG-SOW. […] After allowing the samples to dry the L-citrulline is quantified by scintillation counting.
Compounds are tested at a range of concentrations and from the inhibitions obtained IC50 values are calculated.

Where a name gives a salt, the structure may show the parent alone. Some results are limits rather than exact numbers.

For the molecule `NC1=NCCc2ccccc21` [1-amino-3,4-dihydroisoquinoline], the antihypertensive activity result in test [1] is on record as “has antihypertensive activity”. Consider `NC1=NC(c2ccccc2)Cc2ccccc21` (centres unmarked) [Example 2, 1-Amino-3-phenyl-3,4-dihydroisoquinoline hydrochloride], for which, in test [2], the IC50 was < 25 µM. `C#CC1Cc2ccccc2C(N)=N1` (centres unmarked) [Example 41, 1-Amino-3-ethynyl-3,4-dihydroisoquinoline hydrochloride]: the IC50 in test [2] is < 25 µM.

With `NC1=NC(c2nccs2)Cc2ccccc21` (centres unmarked) [Example 46, 1-Amino-3-(2-thiazolyl)-3,4-dihydroisoquinoline hydrochloride], the IC50 in test [2] was < 25 µM. The same measure, in the same setting: to `CC1Cc2ccccc2C(N)=N1` (centres unmarked) [Example 49, 1-Amino-3-methyl-3,4-dihydroisoquinoline hydroiodide] belongs < 25 µM.
